Laboratory results from EP2522329A1, “Use of resveratrol and arbutin” (DSM IP Assets B.V., priority 2011, dated 2012).
Where two headings read alike, the source gives them in different places.

Test system: POMC
Assay: Gene modulation in normal human epidermal melanocytes (NHEM), RT-qPCR PCR array of mRNA expression
Type: cell-based
Conditions: Melanocyte, 72 h
Procedure: Normal human epidermal melanocytes were cultivated for 24 hours. […] Cells were cultivated for additional 72 hours. All experimental conditions were performed in triplicate.
At the end of the cultivation, the cells were harvested and washed with phosphate buffered saline (PBS) solution and immediately frozen at -80 °C. The expression of selected markers was analyzed using RT-qPCR method on mRNA extracted from cells layer for each treatment condition. The differential expression analysis was performed by PCR arrays of the screening format "mQPA H-Melanocyte-64", which focuses on 64 genes selected for their importance in pigmentation and melanocyte biology.
Total RNA was extracted from each sample using TRI-Reagent®. The amount and quality of the RNA was evaluated using a lab-on-a-chip Bioanalyzer (Agilent technologies). Potential contaminants traces of DNA were removed […] The incorporation of fluorescence in amplified DNA was measured continuously during the PCR cycles. […] The value selected for RE calculations is the "output point" (Ct) of the fluorescence curve. For a given marker, the highest is the cycle number; the lowest, is the mRNA quantity. The RE value is expressed in arbitrary units (AU) according to the equation: (((1)/(2)))^NC x 10^6 Where NC is the number of cycles. [formula]

Compound `Oc1ccc(C=Cc2cc(O)cc(O)c2)cc1` [Resveratrol, 3,4',5 trihydroxystilbene] has an activation at 5 µg/mL (read-out: POMC expression ratio compared to control) of 5% and an activation at 5 µg/mL (read-out: modulation of expression of the gene POMC when compared to untreated cells) of 5%.
